According to ChEMBL document CHEMBL5506042, “Discovery of the Clinical Candidate IDOR-1117-2520: A Potent and Selective Antagonist of CCR6 for Autoimmune Diseases” (J Med Chem, 2024):
pIC50: −log10 of the molar value. Converted amounts (≈) assume the structure as drawn.

How the values were obtained:
[1] = Cmax in Beagle dog at 1 mg/kg, iv; assay type: ADME, organism-based, Canis lupus familiaris; conditions: in vivo
[2] = Solubility of the compound at pH <[…] at 37 degC; assay type: physicochemical
[3] = target: T1, Solute carrier organic anion transporter family member 1B3 (Homo sapiens, UniProt Q9NPD5); assay: Inhibition of OATP1B3 (unknown origin)
T1 sequence (Q9NPD5 whole entry): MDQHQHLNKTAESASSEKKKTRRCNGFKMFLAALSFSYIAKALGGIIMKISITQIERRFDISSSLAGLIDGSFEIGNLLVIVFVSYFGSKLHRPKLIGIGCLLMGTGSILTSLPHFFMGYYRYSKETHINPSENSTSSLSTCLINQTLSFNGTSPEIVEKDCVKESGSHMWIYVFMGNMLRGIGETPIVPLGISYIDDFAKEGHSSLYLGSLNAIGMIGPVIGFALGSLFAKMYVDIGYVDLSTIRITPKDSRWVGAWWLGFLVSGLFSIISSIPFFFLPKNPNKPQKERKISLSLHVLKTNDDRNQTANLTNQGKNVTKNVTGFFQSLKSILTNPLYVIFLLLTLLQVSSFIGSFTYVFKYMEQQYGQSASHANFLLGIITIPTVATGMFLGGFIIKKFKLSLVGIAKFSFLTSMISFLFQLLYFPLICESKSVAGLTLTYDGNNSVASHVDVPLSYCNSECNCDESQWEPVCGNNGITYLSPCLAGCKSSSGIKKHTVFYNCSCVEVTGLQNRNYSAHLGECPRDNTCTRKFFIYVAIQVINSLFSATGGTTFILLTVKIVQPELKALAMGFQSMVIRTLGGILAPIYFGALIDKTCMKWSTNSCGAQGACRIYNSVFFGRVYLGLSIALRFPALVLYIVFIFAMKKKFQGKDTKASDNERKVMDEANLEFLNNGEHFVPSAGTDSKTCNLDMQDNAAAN

Cytochrome P450 3A4 [4] = target: T2, Cytochrome P450 3A4 (Homo sapiens, UniProt P08684); assay: Inhibition of CYP3A4 (unknown origin); assay type: ADME
[5] = Intrinsic solubility of the compound at pH >11.5 using amorphous form of sample; assay type: physicochemical; conditions: read-out: Intrinsic_solubility
Cytochrome P450 2C9 = Cytochrome P450 2C9 (Homo sapiens, UniProt P11712); assay: Inhibition of CYP2C9 (unknown origin); assay type: ADME
[6] = Oral bioavailability in Beagle dog at 3 mg/kg; assay type: ADME, organism-based, Canis lupus familiaris; conditions: in vivo
[7] = Solubility of the compound in aqueous medium at pH <[…]; assay type: physicochemical
[8] = AUC in Beagle dog at 1 mg/kg, iv; assay type: ADME, organism-based, Canis lupus familiaris; conditions: in vivo
[9] = Tmax in Beagle dog at 1 mg/kg, iv; assay type: ADME, organism-based, Canis lupus familiaris; conditions: in vivo
Cytochrome P450 3A4 [10] = target: T2, Cytochrome P450 3A4; assay: Induction of CYP3A4 (unknown origin); assay type: ADME
[11] = Tmax in Wistar rat at 100 mg/kg, po; assay type: ADME, organism-based; conditions: in vivo
Cytochrome P450 2D6 = Cytochrome P450 2D6 (Homo sapiens, UniProt P10635); assay: Inhibition of CYP2D6 (unknown origin); assay type: ADME
[12] = Volume of distribution at steady state in Wistar rat at 3 mg/kg, iv; assay type: ADME, organism-based; conditions: in vivo, read-out: Vdss
[13] = AUC in Beagle dog at 10 mg/kg, po; assay type: ADME, organism-based, Canis lupus familiaris; conditions: in vivo
[14] = AUC in Wistar rat at 3 mg/kg, iv; assay type: ADME, organism-based; conditions: in vivo
Cytochrome P450 3A4 [15] = target: T2, Cytochrome P450 3A4; assay: Time dependent inhibition of CYP3A4 (unknown origin); assay type: ADME
[16] = target: ATP-dependent translocase ABCB1 (Homo sapiens, UniProt P08183); assay: Inhibition of human MDR1
[17] = Oral bioavailability in Wistar rat at 100 mg/kg; assay type: ADME, organism-based; conditions: in vivo
[18] = Cmax in Wistar rat at 100 mg/kg, po; assay type: ADME, organism-based; conditions: in vivo
[19] = Half life in Wistar rat at 3 mg/kg, iv; assay type: ADME, organism-based; conditions: in vivo
[20] = Clearance in Beagle dog at 1 mg/kg, iv; assay type: ADME, organism-based, Canis lupus familiaris; conditions: in vivo
[21] = Volume of distribution at steady state in Beagle dog at 1 mg/kg, iv; assay type: ADME, organism-based, Canis lupus familiaris; conditions: in vivo, read-out: Vdss
[22] = Oral bioavailability in Beagle dog at 10 mg/kg; assay type: ADME, organism-based, Canis lupus familiaris; conditions: in vivo
[23] = Half life in Beagle dog at 1 mg/kg, iv; assay type: ADME, organism-based, Canis lupus familiaris; conditions: in vivo
[24] = AUC in Wistar rat at 100 mg/kg, po; assay type: ADME, organism-based; conditions: in vivo
[25] = Cmax in Beagle dog at 3 mg/kg, po; assay type: ADME, organism-based, Canis lupus familiaris; conditions: in vivo
[26] = AUC in Beagle dog at 3 mg/kg, po; assay type: ADME, organism-based, Canis lupus familiaris; conditions: in vivo
[27] = Tmax in Beagle dog at 3 mg/kg, po; assay type: ADME, organism-based, Canis lupus familiaris; conditions: in vivo
[28] = Intrinsic clearance in human hepatocytes in presence of ABT measured per million cells; assay type: ADME, cell-based, Hepatocyte; conditions: with ABT, read-out: CLH
[29] = Intrinsic clearance in dog liver microsomes at 1 uM measured for 15 mins in presence of NADPH regenerating system by LC-MS/MS analysis; assay type: ADME, Canis lupus familiaris, Microsome; conditions: read-out: CLH
[30] = Fraction unbound in human plasma at 1 uM by rapid equilibrium dialysis based LC-MS/MS analysis; assay type: ADME, cell-free
[31] = Intrinsic clearance in human liver microsomes at 1 uM measured for 15 mins in presence of NADPH regenerating system measured per mg protein by LC-MS/MS analysis; assay type: ADME, Microsome; conditions: read-out: CLH
[32] = Apparent permeability across apical to basolateral side in dog MDCK-II cells; assay type: ADME, cell-based, Canis lupus familiaris
[33] = Clearance in Wistar rat at 3 mg/kg, iv; assay type: ADME, organism-based; conditions: in vivo
[34] = Intrinsic clearance in human hepatocytes measured per million cells; assay type: ADME, cell-based, Hepatocyte; conditions: read-out: CLH
[35] = Fraction unbound in dog plasma at 1 uM by rapid equilibrium dialysis based LC-MS/MS analysis; assay type: ADME, cell-free, Canis lupus familiaris
HepaRG = assay: Cytotoxicity against human HepaRG cells assessed as leakage of intracellular LDH at 100 uM incubated for 24 hrs by spectrophotometry; assay type: toxicity, cell-based
[36] = target: T3, Solute carrier organic anion transporter family member 1B1 (Homo sapiens, UniProt Q9Y6L6); assay: Inhibition of OATP1B1 (unknown origin)
T3 sequence (Q9Y6L6 whole entry): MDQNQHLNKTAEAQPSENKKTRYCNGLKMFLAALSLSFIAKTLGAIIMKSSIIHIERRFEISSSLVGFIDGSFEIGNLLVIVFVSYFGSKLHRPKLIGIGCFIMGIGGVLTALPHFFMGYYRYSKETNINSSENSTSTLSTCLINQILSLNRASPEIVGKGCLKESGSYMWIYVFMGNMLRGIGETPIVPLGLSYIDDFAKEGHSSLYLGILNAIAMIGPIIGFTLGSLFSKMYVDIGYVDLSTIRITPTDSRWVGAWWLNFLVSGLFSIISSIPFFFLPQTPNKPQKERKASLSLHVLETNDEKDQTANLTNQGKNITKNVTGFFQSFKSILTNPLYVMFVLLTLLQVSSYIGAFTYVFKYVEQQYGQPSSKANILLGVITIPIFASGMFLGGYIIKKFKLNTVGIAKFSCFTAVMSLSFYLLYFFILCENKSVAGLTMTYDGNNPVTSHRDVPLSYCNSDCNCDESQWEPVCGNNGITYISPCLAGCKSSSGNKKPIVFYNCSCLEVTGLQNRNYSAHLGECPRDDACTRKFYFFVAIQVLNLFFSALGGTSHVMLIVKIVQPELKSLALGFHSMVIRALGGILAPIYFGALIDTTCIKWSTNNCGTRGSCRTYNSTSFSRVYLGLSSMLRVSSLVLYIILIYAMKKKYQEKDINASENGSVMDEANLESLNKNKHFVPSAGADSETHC

T2 sequence (P08684 whole entry): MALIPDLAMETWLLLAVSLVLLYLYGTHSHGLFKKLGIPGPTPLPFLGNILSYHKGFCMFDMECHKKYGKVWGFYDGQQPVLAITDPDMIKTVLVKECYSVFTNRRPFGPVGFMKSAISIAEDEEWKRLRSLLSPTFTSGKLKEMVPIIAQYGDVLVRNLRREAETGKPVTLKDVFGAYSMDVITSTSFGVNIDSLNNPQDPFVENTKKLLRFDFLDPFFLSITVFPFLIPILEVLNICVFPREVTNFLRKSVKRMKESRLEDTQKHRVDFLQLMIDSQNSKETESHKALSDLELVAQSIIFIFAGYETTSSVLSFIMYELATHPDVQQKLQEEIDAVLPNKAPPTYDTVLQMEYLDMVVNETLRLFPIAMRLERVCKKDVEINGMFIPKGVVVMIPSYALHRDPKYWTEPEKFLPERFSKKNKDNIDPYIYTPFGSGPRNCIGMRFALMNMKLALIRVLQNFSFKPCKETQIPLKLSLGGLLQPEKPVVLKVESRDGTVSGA
Chain of Cytochrome P450 2D6 (P10635 whole entry): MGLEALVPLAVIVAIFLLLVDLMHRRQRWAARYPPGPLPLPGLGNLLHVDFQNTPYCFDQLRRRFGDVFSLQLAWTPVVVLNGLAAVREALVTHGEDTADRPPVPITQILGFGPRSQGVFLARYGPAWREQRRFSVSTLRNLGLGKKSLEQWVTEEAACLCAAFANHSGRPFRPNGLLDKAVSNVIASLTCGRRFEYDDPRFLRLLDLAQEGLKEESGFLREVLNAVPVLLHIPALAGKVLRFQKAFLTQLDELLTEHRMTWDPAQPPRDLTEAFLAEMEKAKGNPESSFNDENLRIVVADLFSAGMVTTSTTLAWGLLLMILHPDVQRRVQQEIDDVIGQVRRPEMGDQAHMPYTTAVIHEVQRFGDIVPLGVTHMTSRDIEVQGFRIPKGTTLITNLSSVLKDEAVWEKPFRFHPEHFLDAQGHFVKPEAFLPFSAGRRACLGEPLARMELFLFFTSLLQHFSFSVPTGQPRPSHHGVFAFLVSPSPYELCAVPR
Chain of ATP-dependent translocase ABCB1 (P08183 whole entry): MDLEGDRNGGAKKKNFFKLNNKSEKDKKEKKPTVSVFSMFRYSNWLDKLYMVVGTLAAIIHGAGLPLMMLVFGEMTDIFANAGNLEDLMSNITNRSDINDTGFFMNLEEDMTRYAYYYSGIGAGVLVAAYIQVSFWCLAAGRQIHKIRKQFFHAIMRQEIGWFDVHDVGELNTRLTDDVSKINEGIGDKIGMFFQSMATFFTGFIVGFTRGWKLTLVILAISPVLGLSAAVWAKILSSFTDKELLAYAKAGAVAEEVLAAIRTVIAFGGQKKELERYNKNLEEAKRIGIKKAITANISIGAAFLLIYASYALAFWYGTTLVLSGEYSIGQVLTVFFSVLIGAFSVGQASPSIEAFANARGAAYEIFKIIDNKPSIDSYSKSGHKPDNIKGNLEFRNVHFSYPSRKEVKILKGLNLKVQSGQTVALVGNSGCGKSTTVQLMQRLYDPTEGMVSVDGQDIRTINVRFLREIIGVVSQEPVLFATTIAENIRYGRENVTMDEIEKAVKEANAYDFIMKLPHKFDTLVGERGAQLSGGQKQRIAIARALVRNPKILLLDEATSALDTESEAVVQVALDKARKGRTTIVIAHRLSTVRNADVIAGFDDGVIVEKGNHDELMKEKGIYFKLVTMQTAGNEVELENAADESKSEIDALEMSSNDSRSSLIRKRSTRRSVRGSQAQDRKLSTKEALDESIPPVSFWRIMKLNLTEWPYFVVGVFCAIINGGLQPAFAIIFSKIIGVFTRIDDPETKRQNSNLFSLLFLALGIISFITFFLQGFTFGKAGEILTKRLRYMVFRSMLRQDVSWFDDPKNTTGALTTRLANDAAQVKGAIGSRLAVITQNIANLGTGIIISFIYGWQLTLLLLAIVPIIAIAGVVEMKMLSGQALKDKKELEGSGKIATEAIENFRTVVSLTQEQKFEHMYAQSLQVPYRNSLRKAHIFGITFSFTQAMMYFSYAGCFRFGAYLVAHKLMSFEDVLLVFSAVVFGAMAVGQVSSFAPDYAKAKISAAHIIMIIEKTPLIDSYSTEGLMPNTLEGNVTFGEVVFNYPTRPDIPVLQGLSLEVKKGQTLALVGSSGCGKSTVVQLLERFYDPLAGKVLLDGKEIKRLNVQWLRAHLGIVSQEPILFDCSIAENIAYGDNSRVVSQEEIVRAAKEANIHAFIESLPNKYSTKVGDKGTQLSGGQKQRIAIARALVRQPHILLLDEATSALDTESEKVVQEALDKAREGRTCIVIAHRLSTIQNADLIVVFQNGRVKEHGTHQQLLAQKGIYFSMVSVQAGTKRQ
Chain of Cytochrome P450 2C9 (P11712 whole entry): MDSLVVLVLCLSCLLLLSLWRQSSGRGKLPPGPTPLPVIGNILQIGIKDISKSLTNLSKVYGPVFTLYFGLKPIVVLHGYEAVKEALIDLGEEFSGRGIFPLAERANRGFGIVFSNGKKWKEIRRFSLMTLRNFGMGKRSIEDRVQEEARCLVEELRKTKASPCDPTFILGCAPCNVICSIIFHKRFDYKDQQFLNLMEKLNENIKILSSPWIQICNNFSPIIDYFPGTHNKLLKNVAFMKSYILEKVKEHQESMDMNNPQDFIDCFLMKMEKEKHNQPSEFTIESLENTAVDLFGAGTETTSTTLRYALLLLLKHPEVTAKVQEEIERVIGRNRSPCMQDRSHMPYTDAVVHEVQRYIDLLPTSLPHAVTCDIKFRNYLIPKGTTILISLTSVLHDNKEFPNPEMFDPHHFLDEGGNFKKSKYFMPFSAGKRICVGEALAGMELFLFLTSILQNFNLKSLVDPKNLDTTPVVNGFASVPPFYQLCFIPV

Work on `CC(C)c1ccc([C@](O)(c2cccc(-c3noc(C(C)(C)O)n3)c2)C2(C)CN(C)C2)cc1` yielded a Cmax [1] of 103 ng/mL, a solubility [2] of over 10000 µg/mL and a pIC50 [3] of under 4.30. For the same compound, the pIC50 (Cytochrome P450 3A4 [4]) was under 4.30, the solubility [5] was 100 µg/mL (≈ 0.23 mM) and the pIC50 (Cytochrome P450 2C9) was under 4.30. It also gave a bioavailability [6] of 25%, a solubility [7] of over 100000 µg/mL and an AUC [8] of 436 ng·h/mL. For the same compound, the Tmax [9] was 48 min, the Activity (Cytochrome P450 3A4 [10]) was “Not Active” and the Tmax [11] was 18 min. It also gave a pIC50 (Cytochrome P450 2D6) of 6.82, a Vd [12] of 23 L/kg and an AUC [13] of 4160 ng·h/mL. The AUC [14] was 443 ng·h/mL, the TDI (Cytochrome P450 3A4 [15]) was “Not Active” and the pIC50 [16] was 4.72. The bioavailability [17] was 19%, the Cmax [18] was 822 ng/mL and the half-life [19] was 216 min. It also gave a clearance [20] of 38 mL/min/kg, a Vd [21] of 11 L/kg and a bioavailability [22] of 95%. It also gave a half-life [23] of 282 min, an AUC [24] of 2770 ng·h/mL and a Cmax [25] of 956 ng/mL. For the same compound, the AUC [26] was 332 ng·h/mL, the Tmax [27] was 48 min and the hepatocyte CLint [28] was under 2 µL/min/1e6 cells. The microsomal CLint at […], 1 µM [29] was 17 µL/min/mg, the fraction unbound at 1 µM [30] was 0.35 and the microsomal CLint at […], 1 µM [31] was under 10 µL/min/mg. The Papp A→B [32] was 0.3 ×10⁻⁶ cm/s, the clearance [33] was 110 mL/min/kg and the hepatocyte CLint [34] was 3.6 µL/min/1e6 cells. The fraction unbound at 1 µM [35] was 0.33, the Activity (HepaRG) was “Non-Toxic” and the pIC50 [36] was under 4.30.
